Holding throughout (assay): NCI-60 cell line screen, 48 h
Assay [1] concerns HS 578T breast.
Assay [2] relates to MCF7 breast.
Assay [3] has as its system SNB-19 CNS.
In assay [4] the test system is TK-10 renal.
In assay [5] the test system is OVCAR-5 ovarian.
Assay [6] has as its system NCI/ADR-RES ovarian.
The subject of assay [7] is RXF 393 renal.
Assay [8] has as its system CAKI-1 renal.
The subject of assay [9] is HOP-92 NSCLC.
Assay [10] has as its system HL-60(TB) leukemia.

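48-hour exposure; five concentrations; linearly interpolated endpoints. GI50: concentration for 50% inhibition of growth. The concentration for full growth arrest is given as TGI.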

In the case of `O=C1NCN(c2ccccc2)C12CCN(CCCN1CCN(CCOC(c3ccc(F)cc3)c3ccc(F)cc3)CC1)CC2`, the TGI is 4.67 µM in [1]; 3.99 µM in assay [2]; 6.57 µM in assay [3]; 3.2 µM in assay [4]; 11.4 µM in assay [5]; 26.7 µM in assay [6]. The figures for the TGI in [7], in assay [8] and in [9] were 2.25 µM, 5.07 µM and 3.9 µM, respectively.
Consider `O=C1c2ccccc2NC(=S)[C@@H]2CCCN12`, for which the TGI in [1], in assay [2], in assay [3], in assay [4], in assay [5] and in assay [6] was greater than 100 µM each time. Also, the TGI in assay [7], in assay [8] and in assay [9] was greater than 100 µM in each case.
`c1ccc(N2N=C(c3ccco3)CC2c2ccco2)cc1` (stereo not given): the TGI in assay [3] was greater than 100 µM; in [4], greater than 100 µM; in assay [10], 73.4 µM; in [5], greater than 100 µM; in [7], greater than 100 µM.
For `CCOC(=O)C#Cc1ccccc1`, the TGI is 82.3 µM in assay [1]; 75.2 µM in assay [2]; greater than 100 µM in assay [3]; 59.9 µM in assay [4]; 36.5 µM in assay [10]; 19.3 µM in [5]. The values for the TGI in [6], in assay [8] and in [9] were greater than 100 µM, 33.4 µM and 36.9 µM, respectively.
In the case of `CN(C)CCC(=O)/C=C\c1ccccc1`, the TGI in [3] was greater than 100 µM; in assay [4], 32.9 µM; in assay [10], 36.8 µM; in assay [5] it was 35.7 µM; in assay [7], 29.2 µM; in assay [8], 32.7 µM. Further, the TGI in assay [9] amounted to 32.9 µM.
For `Nc1nn2c(=O)c3ccccc3nc2s1`, the TGI in assay [1], in assay [2], in assay [3], in [4], in assay [5] and in assay [6] was greater than 100 µM each time. The TGI in [7], in [8] and in [9] was greater than 100 µM in each case.
On to `NS(=O)(=O)c1cccc(NC(=S)NC(=O)Nc2ccc(Cl)c(Cl)c2)c1`, for which the TGI in assay [1] was 45.6 µM; in [2], 37.1 µM; in assay [3] it was 58.2 µM; in assay [4], greater than 100 µM; in assay [5] it was 84 µM; in assay [6], 36.1 µM. The TGI in assay [7] came out at 58.9 µM; in assay [9], 54 µM.
In the case of `CN(C)CC1CCC(CN(C)C)C1=O` (stereo not given), the TGI was 10.2 µM in [1]; 1.8 µM in assay [2]; greater than 100 µM in assay [3]; 28.2 µM in assay [4]; 20.3 µM in [5]; 63.8 µM in assay [6]. For the same compound, the TGI is 9.68 µM in [7], 1.95 µM in [8] and 4.07 µM in [9]. The GI50 in [9] is 1.93 µM.
Consider `CCCCCCCCCc1nn2c(Cc3ccccc3)nnc2s1`, for which the TGI in [1] was found to be 38.5 µM; in assay [2] it was 73.6 µM; in assay [3], 36.1 µM; in [4], 54.5 µM; in assay [5], 29.6 µM; in assay [6] it was 32.7 µM. Moreover, the results for the TGI in assay [7] and in assay [8] were 38.3 µM and greater than 100 µM, respectively.
As for `CCOC(=O)c1cn2c(n1)sc1cc(Cl)cc(Cl)c12`, the TGI in [1], in [2], in [3], in [4], in assay [5] and in assay [6] was greater than 100 µM each time. Besides, the TGI in assay [7], in [8] and in assay [9] was greater than 100 µM each time.
As to `c1c2c(cc(-n3nnc4c3CCCCCC4)c1-n1nnc3c1CCCCCC3)CCCCCC2`, the TGI in assay [3] was 28.4 µM; in [4], 25.4 µM; in [10], greater than 100 µM; in assay [5], 30 µM; in assay [7], 21.6 µM; in [8], 7.17 µM. The same compound showed a TGI in assay [9] of 12.6 µM.
`N#Cc1nc(NC(=O)c2ccccc2C(=O)O)c(C#N)[nH]1`: the TGI in [1], in assay [2], in assay [3], in [4], in [10] and in [5] was greater than 100 µM in each case. For the same compound, the TGI in [6], in assay [8] and in assay [9] was greater than 100 µM throughout.
With `C=C1C(O)CC[C@]2(C)C1C1OC(C)(C)O[C@]13CC(=O)C(C)=C([C@H]1OC(C)(C)OC12)C3(C)C` (stereo not given in full), the TGI in assay [2], in assay [3], in assay [4], in assay [10], in assay [5] and in [6] was greater than 100 µM throughout. In addition, the TGI in [7] and in [8] was greater than 100 µM in each case.
Regarding `COc1ccc(C2c3cc4c(cc3OC(N3CCOCC3)C2C)OCO4)c(OC)c1OC` (stereo not given), the TGI in assay [1] was 19.2 µM; in assay [2], 80.2 µM; in assay [3] it was 39.1 µM; in assay [4], 70.5 µM; in [5], 74.3 µM; in assay [6], greater than 100 µM. The compound further displayed a TGI in assay [8] of 9.74 µM.
Take `CC(=O)OC1C(COC(=O)c2ccccc2)OC(Nc2ncc(-c3ccc(Br)cc3)s2)C(OC(=O)c2ccccc2)C1OC(=O)c1ccccc1` (stereo not given): the TGI in [1], in [2], in assay [3], in assay [4], in assay [5] and in assay [7] was greater than 100 µM throughout. In assay [9], this compound displayed a TGI greater than 100 µM.
As for `COC(=O)C1=Nc2c(C)nn(-c3ccccc3)c2N=C(c2ccccc2)C1`, the TGI in [1], in assay [2], in assay [3], in assay [4], in assay [10] and in [5] was greater than 10 µM in each case. For the same compound, the TGI in assay [6], in [8] and in assay [9] was greater than 10 µM each time.
